# Patent publication US5798375A, “Treatment of arteriosclerosis and xanthoma” (Sankyo Company, Limited, priority 1995, dated 1998)
# What was measured:
# [1] = system: Male New Zealand white rabbits; assay: Example 3: regression of established atherosclerotic lesions in the cholesterol-fed rabbit model; type: in vivo; conditions: for Rate of lesion area, against the control group: figure in parentheses; for Rate of lesion area: thoracic aorta, two months, mean ± standard error, control 29 ± 20
# Description: The rabbits were grouped randomly (3-9 animals per group) and the test samples were administered orally for two months, while they were fed with a normolipidaemic diet. […] The results are shown in terms of the percentage of lesion area in the thoracic aorta.
# [2] = system: WHHL rabbits; assay: Example 1: incidence of xanthoma in the digital joints of WHHL rabbits; type: in vivo
# Description: (§1) WHHL rabbits [2-3 months of age, the Watanabe heritable hyperlipidemic rabbit described in Biochimica et Biophysica Acta, 960, 294-302 (1988)] were randomly assigned to a control group (7 animals, group A), a group receiving pravastatin alone (5 animals, Group B), a group receiving troglitazone alone (7 animals, Group C), and a group receiving a combination of both active substances (6 animals, Group D). Pravastatin was administered orally by gavage at a dose of 50 mg/kg/day once-daily and troglitazone was given in the diet, containing 100 mg/kg of the substance for 32 weeks. The ingested amount was limited to a daily 120 g per rabbit. Blood was withdrawn from the animal immediately before starting the study and 4, 8, 12, 16, 20, 24, 28 and 32 weeks after starting the study and the total cholesterol levels (mg/dl) were determined for each blood sample. The levels are reported as a percentage (%) of the levels measured immediately before starting the study. The animals were sacrificed and necropsied at week 32 to examine (a) the percent lesion area (%) in the total, thoracic or abdominal portion of the aorta; (b) the stenosis (%) of the coronary arteries and (c) the incidence (%) of xanthoma in the digital joints.
# (§2) The values actually measured are represented as an average value±standard error in those Tables.
# [3] = system: WHHL rabbits; assay: Example 1: percent lesion area of the aorta in WHHL rabbits; type: in vivo; conditions: week 32, mean ± standard error, pravastatin 50 mg/kg/day, troglitazone in diet containing 100 mg/kg, * p < 0.05 vs control
# Description: as §1, §2
# [4] = system: Male Fl b hamsters; assay: Example 4: regression of preformed atherosclerosis in hamsters (Oil Red O stained area); type: in vivo; conditions: for Stained Area ORO: aortic arch, 4 weeks, control 1.82 ± 0.44
# Description: Synergism of HMG CoA reductase inhibitors and thiazolidinedione insulin sensitizers was examined by another regression model, i.e. the regression of preformed atherosclerosis in hamsters. Male Fl b hamsters (weight about 130 g,) were given a diet containing 0.05% cholesterol for 13 weeks. They were grouped randomly (2-7 animals per group), and then the test samples were administered for 4 weeks while the hamsters were given a normolipidaemic diet. Pravastatin and fluvastatin were mixed with drinking water at the dose of 3 mg/kg and 1.5 mg/kg, respectively, while troglitazone was mixed with the diet at the dose of 30 mg/kg or 100 mg/kg.
# In the case of the combination groups, the dosage was 3 mg/kg+30 mg/kg or 3 mg/kg+100 mg/kg for the pravastatin+troglitazone group, and 1.5 mg/kg+30 mg/kg for the fluvastatin+troglitazone group.
# Namely, the aortic arch was stained with ORO to prepare en face specimens. The percentage area which was positive to the ORO stain over the whole area was measured to represent the degree of aortic lesion.
# [5] = system: WHHL rabbits; assay: Example 1: stenosis of the coronary arteries in WHHL rabbits; type: in vivo; conditions: week 32
# Description: as §1, §2
# [6] = Example 1: plasma total cholesterol in WHHL rabbits; type: in vivo; conditions: pravastatin 50 mg/kg/day oral gavage, troglitazone in diet containing 100 mg/kg
# Description: as §1
# [7] = system: WHHL rabbits; assay: Example 2: incidence and degree of xanthoma of the four legs; type: in vivo, Male WHHL rabbits; design: Frequency of massive xanthoma: unit not given here
# Description: (§3) Each test compound was administered for eight months to the rabbits in the form of an aqueous suspension (0.5% carboxymethylcellulose added). In the control group, a 0.5% carboxymethylcellulose solution only was administered.
# The incidence and the degree of xanthoma of the four legs were measured.
# [8] = Example 2: serum cholesterol in WHHL rabbits; type: in vivo, Male WHHL rabbits; conditions: Groups C and D (pioglitazone 20 mg/kg; Compound A 10 mg/kg)
# Description: as §3
# [9] = system: WHHL rabbits; assay: Example 2: percentage area covered by lesions, aortic arch and whole aorta; type: in vivo, Male WHHL rabbits; design: Lesion Area, Aortic Arch, percentage against the control group / Lesion Area, Total Aorta, percentage against the control group: concentration or dose not given beside the values; conditions: oral, eight months
# Description: as §3
# The values actually measured are represented by the mean value plus or minus standard error. The numbers in parentheses represent the percentage lesion area against the control group.
# *p<0.05, **p<0.01; significant difference against the control group under the [Mann-Whitney's U-Test A significant difference (p<0.05) was observed between Groups B and F, between Groups C and E and between Groups D and F at the aortic arch, and between Groups C and E over the total aorta.
# [10] = system: WHHL rabbits; assay: Example 2: average thickening of intima in aorta; type: in vivo, Male WHHL rabbits; design: Average thickening of intima, Aortic Arch, percentage against the control group / Average thickening of intima, Total Aorta, percentage against the control group: concentration or dose not given beside the values
# Description: as §3
# The values actually measured are represented as the mean value plus or minus a standard error (μm). The numbers in parentheses represent the percentage intimal thickening against the control group. A significant difference was observed between Groups D and F at the aortic arch, and between Groups C and E and between Groups D and F over the total aorta (p<0.05) under the Mann-Whitney's U-Test.
# The average thickening of the intima is calculated by the cross-sectional area of the aortic tunica intima one section from the arch and two sections from the thoracic and abdominal portions, divided by the length of the tunica media.
# [11] = system: WHHL rabbits; assay: Example 2: aortic cholesterol content; type: in vivo, Male WHHL rabbits
# Description: as §3
# The aortic cholesterol content was measured The tunica media and tunica intima at the aortic arch and at the thoracic and abdominal aorta were peeled away with tweezers and cut into pieces. The pieces were extracted with a 2:1 by volume mixture of chloroform and methanol.
# The chloroform phase was separated and evaporated to dryness and the residue was dissolved in isopropanol. The total cholesterol and the free cholesterol were measured by a conventional enzymatic method.
# Data are expressed by the mean plus or minus standard error (mg/g tissue). The values in parentheses indicate the percentage against the control. A significant difference against the control group was observed by the unpaired student t-test: […]
# [12] = pravastatin 3 mg/kg, fluvastatin 1.5 mg/kg, troglitazone 30 mg/kg alone, combinations
# [13] = oral, eight months, control 100 (14/14), *p < 0.05, **p < 0.01 vs control
smiles,measurement,setting,value
"Cc1c(C)c2c(c(C)c1O)CCC(C)(COc1ccc(CC3SC(=O)NC3=O)cc1)O2 (centres unmarked) [Troglitazone, 5-{4-[(6-hydroxy-2,5,7,8-tetramethyl-chroman-2-yl)methoxy]benzyl}-2,4-thiazolidinedione]","Rate of lesion area, against the control group",[1]; 10 mg/kg,79
same,Rate of lesion area,[1]; 10 mg/kg oral,23 ± 7%
same,"Incidence of xanthoma, Foreleg","[2]; week 32, control 100 (14/14)",86%
same,"Incidence of xanthoma, Hind leg","[2]; week 32, control 100 (14/14)",29%
same,"Incidence of xanthoma, Total","[2]; week 32, control 100 (28/28)",57%
same,"Lesion area, Abdominal aorta",[3]; control 29.9 ± 4.4,27.6 ± 7.0%
same,"Lesion Area, Total Aorta",[3]; control 65.7 ± 3.9,51.7 ± 7.7%
same,"Lesion area, Thoracic aorta",[3]; control 79.3 ± 5.4,57.9 ± 9.9%
same,"Stained Area, % of Control",[4]; 30 mg/kg,109%
same,"Stained Area, % of Control",[4]; 100 mg/kg,58%
same,Stained Area ORO,[4]; 30 mg/kg in diet,1.99 ± 0.40%
same,Stained Area ORO,[4]; 100 mg/kg in diet,1.05 ± 0.64%
same,regression of aortic lesions,[4]; [12],no regression of aortic lesions
same,regression of aortic lesions,"[4]; troglitazone alone, 100 mg/kg",regression was observed
same,"Coronary stenosis, RCA (right coronary artery)",[5]; control 13,7%
same,"Coronary stenosis, LAD (left anterior descending artery)",[5]; control 24,11%
same,"Coronary stenosis, LSP (left septal artery)",[5]; control 40,31%
same,"Coronary stenosis, LCX (left circumflex artery)",[5]; control 47,39%
same,"Coronary stenosis, MLC (main left coronary artery)",[5]; control 61,59%
same,"Coronary stenosis, MRC (main right coronary artery)",[5]; control 79,83%
same,"total cholesterol level, % of level before starting the study",[6]; week 4,88%
same,"total cholesterol level, % of level before starting the study",[6]; week 8,89%
same,"total cholesterol level, % of level before starting the study",[6]; week 12,78%
same,"total cholesterol level, % of level before starting the study",[6]; week 16,83%
same,"total cholesterol level, % of level before starting the study",[6]; week 20,72%
same,"total cholesterol level, % of level before starting the study",[6]; week 24,73%
same,"total cholesterol level, % of level before starting the study",[6]; week 28,77%
same,"total cholesterol level, % of level before starting the study",[6]; week 32,76%
CC(C)n1c(/C=C/C(O)CC(O)CC(=O)O)c(-c2ccc(F)cc2)c2ccccc21 (centres unmarked) [Fluvastatin],"Rate of lesion area, against the control group",[1]; 0.08 mg/kg (as printed in Table 9),93
same,"Rate of lesion area, against the control group",[1]; 1.5 mg/kg,134
same,Rate of lesion area,[1]; 0.08 mg/kg (as printed in Table 9) oral,27 ± 9%
same,Rate of lesion area,[1]; 1.5 mg/kg oral,39 ± 16%
same,"Stained Area, % of Control",[4]; 1.5 mg/kg,96%
same,Stained Area ORO,[4]; 1.5 mg/kg in drinking water,1.74 ± 0.49%
same,regression of aortic lesions,[4]; [12],no regression of aortic lesions
"CCc1ccc(CCOc2ccc(CC3SC(=O)NC3=O)cc2)nc1 (centres unmarked) [Pioglitazone, 5-{4-[2-(5-ethylpyridin-2-yl)ethoxy]benzyl}-2,4-thiazolidinedione]",Frequency of massive xanthoma,"[7]; control 57, *p < 0.05, **p < 0.01 vs control",68
same,incidence of xanthoma,[7]; forelegs and hindlegs,slightly less frequent incidence of xanthoma
same,Distribution of severity of lesion: (-) no lesions,"[7]; number of legs, control 0",2
same,Distribution of severity of lesion: (+++) severe lesion,"[7]; number of legs, control 6",8
same,Distribution of severity of lesion: (++) moderate lesion,"[7]; number of legs, control 10",11
same,Distribution of severity of lesion: (+) slight lesion,"[7]; number of legs, control 12",7
same,"Incidence of xanthoma, Forelegs",[7]; [13],100%
same,"Incidence of xanthoma, Hindlegs",[7]; [13],86%
same,"Incidence of xanthoma, Total","[7]; oral, eight months, control 100 (28/28), *p < 0.05, **p < 0.01 vs control",93%
same,reduction of the serum cholesterol levels,[8],no reduction
same,"Lesion Area, Aortic Arch, percentage against the control group",[9]; number in parentheses,88%
same,"Lesion Area, Total Aorta, percentage against the control group",[9]; number in parentheses,108%
same,"Lesion Area, Total Aorta","[9]; pravastatin 50, pioglitazone 20, Compound A 10 mg/kg, mean ± standard error, *p<0.05, **p<0.01 vs control",54 ± 8%
same,"Lesion Area, Aortic Arch","[9]; pravastatin 50, pioglitazone 20, Compound A 10 mg/kg, mean ± standard error, control 82 ± 5, *p<0.05, **p<0.01 vs control",72 ± 10%
same,suppression of intimal thickening,[10]; combinations compared with Groups C and D,no suppression of hypertrophy
same,"Average thickening of intima, Aortic Arch, percentage against the control group",[10]; number in parentheses,103%
same,"Average thickening of intima, Total Aorta, percentage against the control group",[10]; number in parentheses,115%
same,"Average thickening of intima in aorta, Total Aorta","[10]; oral, eight months, pravastatin 50, pioglitazone 20, Compound A 10 mg/kg, mean ± standard error, control 154 ± 33",177 ± 26 μm
same,"Average thickening of intima in aorta, Aortic Arch","[10]; oral, eight months, pravastatin 50, pioglitazone 20, Compound A 10 mg/kg, mean ± standard error, control 237 ± 63",245 ± 37 μm
same,"Cholesterol level of Thoracic and Abdominal Aorta, Esterified","[11]; mean ± standard error, control 5.3 ± 1.7",10.5 ± 3.8 mg/g tissue
same,"Cholesterol Content of Aortic Arch, Esterified","[11]; mean ± standard error, control 6.5 ± 1.4, *p < 0.05",6.6 ± 2.7 mg/g tissue
same,"Cholesterol level of Thoracic and Abdominal Aorta, Free","[11]; mean ± standard error, control 14.8 ± 2.3, *p < 0.05 vs control",23.4 ± 3.8 mg/g tissue
same,"Cholesterol level of Thoracic and Abdominal Aorta, Total","[11]; mean ± standard error, control 20.1 ± 2.3, *p < 0.05, **p < 0.02 vs control",33.9 ± 7.3 mg/g tissue
same,"Cholesterol Content of Aortic Arch, Free","[11]; mean ± standard error, control 20.6 ± 2.9",26.9 ± 2.3 mg/g tissue
same,"Cholesterol Content of Aortic Arch, Esterified, percentage against the control",[11]; number in parentheses,102%
same,"Cholesterol Content of Aortic Arch, Free, percentage against the control",[11]; number in parentheses,131%
same,"Cholesterol Content of Aortic Arch, Total, percentage against the control",[11]; number in parentheses,124%
same,"Cholesterol level of Thoracic and Abdominal Aorta, Esterified, percentage against the control",[11]; number in parentheses,198%
same,"Cholesterol level of Thoracic and Abdominal Aorta, Free, percentage against the control",[11]; number in parentheses,158%
same,"Cholesterol level of Thoracic and Abdominal Aorta, Total, percentage against the control",[11]; number in parentheses,169%
